Test results: patent US12655173B2, “Hybrid amide derivatives of amphotericin B” (priority 2020, dated 2026)
In brackets after ≈: the same amount, converted by molar mass.

Legend:
yeast = assay: MICavg / Average MIC against yeasts; assay type: cell-based; conditions: for MIC: 46 isolates, Table 3
moulds = assay: MICavg / Average MIC against moulds; assay type: cell-based; conditions: for MIC: 157 isolates, Table 2
[1] = UV-Vis sterol binding assay
Protocol: UV-Vis is Binding Assay (FIG. 1A): The protocol for the sterol binding assay (UV-Vis) was developed in our lab. Compounds were dissolved in DMSO at a final concentration of 1 mM. Sterol were first dissolved in CHCl3 (>200 mM) and then diluted to 1 mM concentration with DMSO To synthesize the complex 1 ul of compound solution was taken in a clean eppendorf tube (2 ml) and sterol solution (volume depends on the stoichiometry) was added to it and the volume was made up to 20 ul with DMSO. 0.98 ml of PBS buffer was added to the Eppendorf tube and mixed properly. The absorbance of the solution was measured after 30 mins of incubation.

[2] = system: erythrocytes (whole human blood); assay: MHC hemolysis assay; assay type: cell-based
Protocol: MHC (FIG. 1B and FIG. 10): The protocol for the hemolysis assay was adapted from the report of Paquet and coworkers (Chem. Eur. J. 2008, 14, 2465-2481). Whole human blood (sodium heparin) was purchased from Bioreclamation LLC (Westbury, NY) and stored at 4° C. and used within two days of receipt. To a 2.0 mL appendorf tube, 1 mL of whole human blood was added and centrifuged at 10,000 g for 2 minutes. The supernatant was removed and the erythrocyte pellet was washed with 1 mL of sterile saline and centrifuged at 10,000 g for 2 minutes. The saline wash was repeated for a total of three washes. The erythrocyte pellet was suspended in 1 mL of RBC buffer (10 mM NaH2PO4, 150 mM NaCl, 1 mM MgCl2, pH 7.4) to form the erythrocyte stock suspension.
Compounds were prepared as >15 mM stock solutions in DMSO and serially diluted to the following concentrations with DMSO: 7689, 5126, 2563, 2050, 1538, 1025, 769, 513, 384, 256, 205, 154, 103, 77, 51, 26 μM. To a 0.2 mL PCR tube, 24 μL of RBC buffer and 1 μL of compound stock solution were added, which gave final concentrations of 500, 300, 200, 100, 80, 60, 40, 30, 20, 15, 10, 8, 6, 4, 3, 2, 1 μM. Positive and negative controls were prepared by adding 1 μL of DMSO to MilliQ water or RBC buffer, respectively to 0.2 mL PCR tube. To each PCR tube, 0.63 μL. of the erythrocyte stock suspension was added and mixed by inversion. The samples were incubated at 37° C. for 2 hours. The samples were mixed by inversion and centrifuged at 10,000 g for 2 minutes. 15 μL of the supernatant from each sample was added to a 384-well place. Absorbances were read at 540 nm using a Biotek H1 Synergy Hybrid Reader (Winooski, VT), Experiments were performed in triplicate and the reported MHC represents an average of three experiments.

[3] = Blood plasma stability, mouse; assay type: in vitro ADME
[4] = Blood plasma stability, human; assay type: in vitro ADME
A. flavus = assay: MIC against moulds; assay type: cell-based
Mucor janssenii = assay: MIC against moulds; assay type: cell-based; conditions: 6 isolates, AmB (AmBisome)
Mucor velutinosus = assay: MIC against moulds; assay type: cell-based; conditions: 6 isolates, AmB (AmBisome)
Histoplasma capsulatum = assay: microbe, parasite or virus in culture; assay type: cell-based; conditions: for MIC Histoplasma capsulatum: 6 isolates, AmB (AmBisome)
Coccidioides immitis = assay: microbe, parasite or virus in culture; assay type: cell-based; conditions: for MIC Coccidioides immitis: 6 isolates, AmB (AmBisome)
Fusarium oxysporum = assay: MIC against moulds; assay type: cell-based; conditions: 6 isolates, AmB (AmBisome)
Fusarium solani = assay: MIC against moulds; assay type: cell-based
Cunninghamella sp. = assay: MIC against moulds; assay type: cell-based; conditions: 6 isolates, AmB (AmBisome)
Licht. Corymbifera = assay: MIC against moulds; assay type: cell-based; conditions: 6 isolates, AmB (AmBisome)
Claophialophora bantiana = assay: MIC against moulds; assay type: cell-based; conditions: 6 isolates; AmB (AmBisome)
Blastomyces dermatitidis = assay: MIC against moulds; assay type: cell-based; conditions: 5 isolates, AmB (AmBisome)
Talaromyces marneffei = assay: MIC against moulds; assay type: cell-based; conditions: 6 isolates, AmB (AmBisome)
Apophysomyces sp. = assay: MIC against moulds; assay type: cell-based; conditions: 3 isolates; AmB (AmBisome)
Saksenaea sp. = assay: MIC against moulds; assay type: cell-based; conditions: 4 isolates; AmB (AmBisome)
Candida auris = assay: MIC against yeasts; assay type: cell-based
Candida parapsilosis = assay: MIC against yeasts; assay type: cell-based
Sporothrix schenckii = assay: MIC against rare moulds resistant to AmB; assay type: cell-based; conditions: 6 isolates, Table 4
[5] = system: Purpureocillium lilacinum; assay: MIC against rare moulds resistant to AmB; assay type: cell-based; conditions: 6 isolates, Table 4
Scedosporium aurantiacum = assay: MIC against rare moulds resistant to AmB; assay type: cell-based; conditions: 4 isolates, Table 4
Scedosporium boydii = assay: MIC against rare moulds resistant to AmB; assay type: cell-based; conditions: 6 isolates, Table 4
Lomentospora prolificans = assay: MIC against rare moulds resistant to AmB; assay type: cell-based; conditions: 6 isolates, Table 4

With `CC1C=CC=CC=CC=CC=CC=CC=CC(OC2OC(C)C(O)C(N)C2O)CC2OC(O)(CC(O)CC(O)C(O)CCC(O)CC(O)CC(=O)OC(C)C(C)C1O)CC(O)C2C(=O)NC(CO)CO` (stereo not shown) [Compound 1] the “MICavg yeast (5 strains)” value (yeast) was 0.53, the MIC (yeast) was 2.1 µM (≈ 2.09 µg/mL) and the “MICavg yeast (46 strains)” value (yeast) was 2.1. For the same compound, the “MICavg moulds (3 strains)” value (moulds) was 1.6, the MIC (moulds) was 1.4 µM (≈ 1.4 µg/mL) and the “MICavg moulds (159 strains)” value (moulds) was 1.4. For the same compound, the “Binds Cholesterol” value [1] was “No”, the MHC [2] was over 100 and the “Blood Plasma Stability (T1/2, min) Mouse” value [3] was >289; >289 min. For the same compound, the “Blood Plasma Stability (T1/2, min) Human” value [4] was >289; >289 min, the MIC (A. flavus; 6 isolates, AmB (AmBisome)) was 1.67 µM (≈ 1.67 µg/mL) and the MIC (Mucor janssenii) was 0.5 µM (≈ 0.499 µg/mL). For the same compound, the MIC (Mucor velutinosus) was 0.67 µM (≈ 0.668 µg/mL), the “MIC Histoplasma capsulatum” value (Histoplasma capsulatum) was 0.06 µM (≈ 0.0598 µg/mL) and the “MIC Coccidioides immitis” value (Coccidioides immitis) was 0.27 µM (≈ 0.269 µg/mL). For the same compound, the MIC (Fusarium oxysporum) was 6 µM (≈ 5.98 µg/mL), the MIC (Fusarium solani; 6 isolates, AmB (AmBisome)) was 5.67 µM (≈ 5.65 µg/mL) and the MIC (Cunninghamella sp.) was 4 µM (≈ 3.99 µg/mL). It also gave an MIC (Licht. Corymbifera) of 0.5 µM (≈ 0.499 µg/mL), an MIC (Claophialophora bantiana) of 1.17 µM (≈ 1.17 µg/mL) and an MIC (Blastomyces dermatitidis) of 0.25 µM (≈ 0.249 µg/mL). For the same compound, the MIC (Talaromyces marneffei) was 0.12 µM (≈ 0.12 µg/mL), the MIC (Apophysomyces sp.) was 6.8 µM (≈ 6.78 µg/mL) and the MIC (Saksenaea sp.) was 0.23 µM (≈ 0.229 µg/mL). It also gave an MIC (Candida auris; 10 isolates, Table 3) of 2.6 µM (≈ 2.59 µg/mL), an MIC (Candida parapsilosis; 8 isolates, Table 3) of 1.8 µM (≈ 1.79 µg/mL) and an MIC (Sporothrix schenckii) of 6 µM (≈ 5.98 µg/mL). For the same compound, the MIC [5] was over 16 µM, the MIC (Scedosporium aurantiacum) was over 16 µM and the MIC (Scedosporium boydii) was over 16 µM. It also gave an MIC (Lomentospora prolificans) of over 16 µM.
With `C[C@@H]1[C@H](O)[C@@H](C)/C=C/C=C/C=C/C=C/C=C/C=C/C=C/[C@H](OC2O[C@H](C)[C@@H](O)[C@H](N)[C@@H]2O)C[C@@H]2O[C@](O)(C[C@@H](O)C[C@@H](O)[C@H](O)CC[C@@H](O)C[C@@H](O)CC(=O)O[C@H]1C)C[C@H](O)[C@H]2C(=O)O` (stereo partly shown) [AmB, Amphotericin B] the “MICavg yeast (5 strains)” value (yeast) was 0.23, the MIC (yeast) was 0.9 µM (≈ 0.832 µg/mL) and the “MICavg yeast (46 strains)” value (yeast) was 0.9. The “MICavg moulds (3 strains)” value (moulds) was 0.92, the MIC (moulds) was 0.9 µM (≈ 0.832 µg/mL) and the “MICavg moulds (159 strains)” value (moulds) was 0.9. For the same compound, the “Binds Cholesterol” value [1] was “Yes”, the MHC [2] was 8.4 and the half-life ([3]; mouse, blood plasma, read-out: Blood Plasma Stability (T1/2, min) Mouse) was over 289 min. For the same compound, the half-life ([4]; human, blood plasma, read-out: Blood Plasma Stability (T1/2, min) Human) was over 289 min, the MIC (A. flavus; Aspergillus flavus, 3 isolates, Table 2A) was 4 µM (≈ 3.7 µg/mL) and the MIC (A. flavus; Aspergillus flavus, 6 isolates, AmB (AmBisome)) was 1.16 µM (≈ 1.07 µg/mL). It also gave an MIC (Mucor janssenii; Mucor janssenii) of 0.06 µM (≈ 0.0554 µg/mL), an MIC (Mucor velutinosus; Mucor velutinosus) of 0.08 µM (≈ 0.0739 µg/mL) and an MIC (Histoplasma capsulatum; Histoplasma capsulatum, read-out: MIC Histoplasma capsulatum) of 0.06 µM (≈ 0.0554 µg/mL). The MIC (Coccidioides immitis; Coccidioides immitis, read-out: MIC Coccidioides immitis) was 0.125 µM (≈ 0.116 µg/mL), the MIC (Fusarium oxysporum; Fusarium oxysporum) was 1.5 µM (≈ 1.39 µg/mL) and the MIC (Fusarium solani; Fusarium solani, 2 isolates, Table 3A) was 3 µM (≈ 2.77 µg/mL). It also gave an MIC (Fusarium solani; Fusarium solani, 6 isolates, AmB (AmBisome)) of 1.33 µM (≈ 1.23 µg/mL), an MIC (Cunninghamella sp.; Cunninghamella) of 2 µM (≈ 1.85 µg/mL) and an MIC (Licht. Corymbifera; Lichtheimia corymbifera) of 0.23 µM (≈ 0.213 µg/mL). For the same compound, the MIC (Claophialophora bantiana) was 0.375 µM (≈ 0.347 µg/mL), the MIC (Blastomyces dermatitidis; Blastomyces dermatitidis) was under 0.03 µM and the MIC (Talaromyces marneffei; Talaromyces marneffei) was 0.09 µM (≈ 0.0832 µg/mL). For the same compound, the MIC (Apophysomyces sp.) was 0.75 µM (≈ 0.693 µg/mL), the MIC (Saksenaea sp.) was 0.06 µM (≈ 0.0554 µg/mL) and the MIC (Candida auris; Candidozyma auris, 10 isolates, Table 3) was 1.2 µM (≈ 1.11 µg/mL). It also gave an MIC (Candida auris; Candidozyma auris, 15 isolates, Table 3A) of 2.9 µM (≈ 2.68 µg/mL), an MIC (Candida parapsilosis; Lodderomyces parapsilosis, 6 isolates, Table 3A) of 0.5 µM (≈ 0.462 µg/mL) and an MIC (Candida parapsilosis; Lodderomyces parapsilosis, 8 isolates, Table 3) of 1.1 µM (≈ 1.02 µg/mL). For the same compound, the MIC (Sporothrix schenckii; Sporothrix schenckii) was 4 µM (≈ 3.7 µg/mL), the MIC ([5]; Purpureocillium lilacinum) was over 16 µM and the MIC (Scedosporium aurantiacum; Scedosporium aurantiacum) was over 16 µM. The MIC (Scedosporium boydii; Scedosporium boydii) was over 16 µM and the MIC (Lomentospora prolificans; Lomentospora prolificans) was over 16 µM.
In the case of `CC1C=CC=CC=CC=CC=CC=CC=CC(OC2OC(C)C(O)C(N)C2O)CC2OC(O)(CC(O)CC(O)C(O)CCC(O)CC(O)CC(=O)OC(C)C(C)C1O)CC(O)C2C(=O)NC(CO)(CO)CO` (stereo not shown) [Compound 2], the “MICavg yeast (5 strains)” value (yeast) is reported as 0.41, the MIC (yeast) is reported as 2.3 µM (≈ 2.36 µg/mL) and the “MICavg yeast (46 strains)” value (yeast) is reported as 2.3. For the same compound, the “MICavg moulds (3 strains)” value (moulds) was 1, the MIC (moulds) was 2.6 µM (≈ 2.67 µg/mL) and the “MICavg moulds (159 strains)” value (moulds) was 2.6. For the same compound, the “Binds Cholesterol” value [1] was “No”, the MHC [2] was over 60 and the “Blood Plasma Stability (T1/2, min) Mouse” value [3] was 265.1 min. The “Blood Plasma Stability (T1/2, min) Human” value [4] was over 289 min, the MIC (A. flavus; 6 isolates, AmB (AmBisome)) was 1.67 µM (≈ 1.72 µg/mL) and the MIC (Mucor janssenii) was 0.92 µM (≈ 0.945 µg/mL). For the same compound, the MIC (Mucor velutinosus) was 1.17 µM (≈ 1.2 µg/mL), the “MIC Histoplasma capsulatum” value (Histoplasma capsulatum) was 0.08 µM (≈ 0.0822 µg/mL) and the “MIC Coccidioides immitis” value (Coccidioides immitis) was 0.27 µM (≈ 0.277 µg/mL). For the same compound, the MIC (Fusarium oxysporum) was 13.3 µM (≈ 13.7 µg/mL), the MIC (Fusarium solani; 6 isolates, AmB (AmBisome)) was 14 µM (≈ 14.4 µg/mL) and the MIC (Cunninghamella sp.) was 5.33 µM (≈ 5.48 µg/mL). For the same compound, the MIC (Licht. Corymbifera) was 1 µM (≈ 1.03 µg/mL), the MIC (Claophialophora bantiana) was 1.83 µM (≈ 1.88 µg/mL) and the MIC (Blastomyces dermatitidis) was 0.6 µM (≈ 0.616 µg/mL). The MIC (Talaromyces marneffei) was 0.21 µM (≈ 0.216 µg/mL), the MIC (Apophysomyces sp.) was 8.3 µM (≈ 8.53 µg/mL) and the MIC (Saksenaea sp.) was 0.36 µM (≈ 0.37 µg/mL). It also gave an MIC (Candida auris; 10 isolates, Table 3) of 2.6 µM (≈ 2.67 µg/mL), an MIC (Candida parapsilosis; 8 isolates, Table 3) of 1.6 µM (≈ 1.64 µg/mL) and an MIC (Sporothrix schenckii) of over 5.2 µM. The MIC [5] was over 16 µM, the MIC (Scedosporium aurantiacum) was over 16 µM and the MIC (Scedosporium boydii) was over 16 µM. For the same compound, the MIC (Lomentospora prolificans) was over 16 µM.
